Source: patent EP1073451B1, “D[…] TREATING ISCHEMIA” (University of Kentucky Research Foundation, priority 1998, dated 2002)

Tested on: focal middle cerebral arterial occlusion (MCAO) ischemia
Settings: for infarct volume reduced compared to control animals: after 24 h of reperfusion; for infarct volume reduced compared to control animals / MABP, pO2, pCO2, pH or rectal temperature versus control animals: 4 mg/kg i.p. x4 prior to 1 h MCAO; for neurological deficits: behavior ranking 0 (normal) to 3 (severe), 4 mg/kg i.p. at 6.5 h, 4.5 h, 2.5 h and 0.5 h prior to ischemic injury, 1 h MCAO, mean ± SEM; for neurological deficits / infarct volume: n=8; for infarct volume: 4 mg/kg; for MABP, pO2, pCO2, pH or rectal temperature versus control animals: post ischemia

Compound | infarct volume reduced compared to control animals [%] | neurological deficits | infarct volume [mm^2] | MABP, pO2, pCO2, pH or rectal temperature versus control animals
CC(C)C[C@@H](NC(=O)[C@H](Cc1ccccc1)NC(=O)CNC(=O)[C@@H](C)NC(=O)[C@@H](N)Cc1ccc(O)cc1)C(=O)O [DADLE, Tyr-D-Ala-Gly-Phe-D-Leu-enkephalin] | 12 | 1.73 ± 0.20 | 67 ± 9 | no significant differences
Tyr-Ala-Phe-Asp-Val-Val-Gly-NH2 [deltorphin] | 42 | 0.44 ± 0.11 | 45 ± 10 | no significant differences
